Measured values reported in US9982019B2, “Glycopeptide compound or pharmaceutical salt thereof and method for preparing same, and pharmaceutical compositions and applications thereof” (priority 2012, dated 2018).
Counter-ions that a name gives are not always drawn.

Experiments:
[1] = test system: Feces enterococci (VSE clinical isolates: MEFA 0039); experiment: In vitro antibacterial activity, agar two times dilution method, MIC; assay type: cell-based; details: for MIC Values of Compounds, Enterococci: agar dilution, VSE clinical isolate MEFA 0039
Description: (§1) Testing results of in vitro antibacterial activity of some target compounds of the present invention are as follows:
(§2) Drugs: firstly being dissolved in DMSO, and then being diluted to an appropriate concentration with sterile water, and afterwards successively being diluted for twice.
(§3) Determination: referencing the standard of CSSI 2008 version, using a agar two times dilution method, determine the minimum inhibitory concentration (MIC values).
(§4) Feces enterococci (VSE clinical isolates: MEFA 0039); Streptococcus pneumoniae (PISP: ATCC 49619).
(§5) 3. Positive Control Drug is Vancomycin Hydrochloride.

[2] = test system: Streptococcus pneumoniae (PISP: ATCC 49619); experiment: as above; assay type: cell-based; details: for MIC Values of Compounds, Streptococcus pneumoniae: agar dilution, PISP ATCC 49619
Description: as §1, §2, §3, §4, §5

Row | SMILES | MIC Values of Compounds, Enterococci [1] | MIC Values of Compounds, Streptococcus pneumoniae [2] | MIC ([1]; read-out: MIC Values of Compounds, Enterococci) | MIC ([2]; Streptococcus pneumoniae, ATCC49619, read-out: MIC Values of Compounds, Streptococcus pneumoniae)
1 | CCCCNCc1c(O)cc2c(c1O)-c1cc(ccc1O)C1NC(=O)C3NC(=O)C(CC(N)=O)NC(=O)C(N4CN(C)C(CC(C)C)C4=O)C(O)c4ccc(c(Cl)c4)Oc4cc3cc(c4OC3OC(CO)C(O)C(O)C3OC3CC(C)(NCc4ccccc4Br)C(O)C(C)O3)Oc3ccc(cc3Cl)C(OC3CC(C)(N)C(O)C(C)O3)C(NC1=O)C(=O)NC2C(=O)O (stereo not shown) [II3] | 2 µg/mL | 0.25 µg/mL | – | –
2 | CCN(CC)Cc1c(O)cc2c(c1O)-c1cc(ccc1O)C1NC(=O)C3NC(=O)C(CC(N)=O)NC(=O)C(N4CN(C)C(CC(C)C)C4=O)C(O)c4ccc(c(Cl)c4)Oc4cc3cc(c4OC3OC(CO)C(O)C(O)C3OC3CC(C)(NCc4cccc(Br)c4)C(O)C(C)O3)Oc3ccc(cc3Cl)C(OC3CC(C)(N)C(O)C(C)O3)C(NC1=O)C(=O)NC2C(=O)O (stereo not shown) [II4] | 2 µg/mL | 0.25 µg/mL | – | –
3 | CCCCNCc1c(O)cc2c(c1O)-c1cc(ccc1O)C1NC(=O)C3NC(=O)C(CC(N)=O)NC(=O)C(N4CN(C)C(CC(C)C)C4=O)C(O)c4ccc(c(Cl)c4)Oc4cc3cc(c4OC3OC(CO)C(O)C(O)C3OC3CC(C)(NCc4cccc(Br)c4)C(O)C(C)O3)Oc3ccc(cc3Cl)C(OC3CC(C)(N)C(O)C(C)O3)C(NC1=O)C(=O)NC2C(=O)O (stereo not shown) [II5] | 1 µg/mL | 0.25 µg/mL | – | –
4 | CC(C)CC1C(=O)N(C2C(=O)NC(CC(N)=O)C(=O)NC3C(=O)NC4C(=O)NC(C(=O)NC(C(=O)O)c5cc(O)c(CN6CCOCC6)c(O)c5-c5cc4ccc5O)C(OC4CC(C)(N)C(O)C(C)O4)c4ccc(c(Cl)c4)Oc4cc3cc(c4OC3OC(CO)C(O)C(O)C3OC3CC(C)(NCc4cccc(Br)c4)C(O)C(C)O3)Oc3ccc(cc3Cl)C2O)CN1C (stereo not shown) [II6] | 2 µg/mL | 0.25 µg/mL | – | –
5 | CCN(CC)Cc1c(O)cc2c(c1O)-c1cc(ccc1O)C1NC(=O)C3NC(=O)C(CC(N)=O)NC(=O)C(N4CN(C)C(CC(C)C)C4=O)C(O)c4ccc(c(Cl)c4)Oc4cc3cc(c4OC3OC(CO)C(O)C(O)C3OC3CC(C)(NCc4ccc(Br)cc4)C(O)C(C)O3)Oc3ccc(cc3Cl)C(OC3CC(C)(N)C(O)C(C)O3)C(NC1=O)C(=O)NC2C(=O)O (stereo not shown) [II7] | 1 µg/mL | 0.25 µg/mL | – | –
6 | CCN(CC)Cc1c(O)cc2c(c1O)-c1cc(ccc1O)C1NC(=O)C3NC(=O)C(CC(N)=O)NC(=O)C(N4CN(C)C(CC(C)C)C4=O)C(O)c4ccc(c(Cl)c4)Oc4cc3cc(c4OC3OC(CO)C(O)C(O)C3OC3CC(C)(NCc4ccc(OC)cc4)C(O)C(C)O3)Oc3ccc(cc3Cl)C(OC3CC(C)(N)C(O)C(C)O3)C(NC1=O)C(=O)NC2C(=O)O (stereo not shown) [II8] | 1 µg/mL | 0.25 µg/mL | – | –
7 | CC(C)CC1C(=O)N(C2C(=O)NC(CC(N)=O)C(=O)NC3C(=O)NC4C(=O)NC(C(=O)NC(C(=O)O)c5cc(O)c(CN6CCOCC6)c(O)c5-c5cc4ccc5O)C(OC4CC(C)(N)C(O)C(C)O4)c4ccc(c(Cl)c4)Oc4cc3cc(c4OC3OC(CO)C(O)C(O)C3OC3CC(C)(NCc4ccc(C(C)C)cc4)C(O)C(C)O3)Oc3ccc(cc3Cl)C2O)CN1C (stereo not shown) [II9] | 1 µg/mL | 0.25 µg/mL | – | –
8 | CN[C@H](CC(C)C)C(=O)N[C@H]1C(=O)N[C@@H](CC(N)=O)C(=O)N[C@H]2C(=O)N[C@H]3C(=O)N[C@H](C(=O)N[C@H](C(=O)O)c4cc(O)cc(O)c4-c4cc3ccc4O)[C@H](O)c3ccc(c(Cl)c3)Oc3cc2cc(c3O[C@@H]2O[C@H](CO)[C@@H](O)[C@H](O)[C@H]2O[C@H]2C[C@](C)(N)[C@H](O)[C@H](C)O2)Oc2ccc(cc2Cl)[C@H]1O [vancomycin hydrochloride, reference compound] | – | – | 0.25 µg/mL | 0.125 µg/mL
